The values that follow come from patent publication US9102622B2 (University of Connecticut, priority 2006, dated 2015).

The experiment has as its target fatty acid amide hydrolase (FAAH) (Rattus norvegicus (Rat), UniProt P97612). Kind of experiment: FAAH enzyme assay: inhibition of anandamide (AEA) hydrolysis, arachidonic acid quantified by HPLC. It counts as biochemical. To be noted: for inhibition at 100 µM: inhibitor 100 μM, partially purified rat brain FAAH, 15 min, read-out: % Inhibition (Concentration). As to the method:
The resulting supernatant is injected onto the HPLC.

Where [1] appears, read: eight-point assay, anandamide hydrolysis by FAAH, read-out: IC50.
Where [2] appears, read: eight-point assay, calculated with Prizm software, read-out: Ki.

The term IC50 denotes the concentration that gives 50% inhibition. Broadly, the Ki is a dissociation constant, usually derived from enzyme kinetics or from competition with a known ligand.

Structures are written as SMILES. Where two headings read alike, the source gives them in different places.

Sequence of fatty acid amide hydrolase (FAAH) (P97612 whole entry): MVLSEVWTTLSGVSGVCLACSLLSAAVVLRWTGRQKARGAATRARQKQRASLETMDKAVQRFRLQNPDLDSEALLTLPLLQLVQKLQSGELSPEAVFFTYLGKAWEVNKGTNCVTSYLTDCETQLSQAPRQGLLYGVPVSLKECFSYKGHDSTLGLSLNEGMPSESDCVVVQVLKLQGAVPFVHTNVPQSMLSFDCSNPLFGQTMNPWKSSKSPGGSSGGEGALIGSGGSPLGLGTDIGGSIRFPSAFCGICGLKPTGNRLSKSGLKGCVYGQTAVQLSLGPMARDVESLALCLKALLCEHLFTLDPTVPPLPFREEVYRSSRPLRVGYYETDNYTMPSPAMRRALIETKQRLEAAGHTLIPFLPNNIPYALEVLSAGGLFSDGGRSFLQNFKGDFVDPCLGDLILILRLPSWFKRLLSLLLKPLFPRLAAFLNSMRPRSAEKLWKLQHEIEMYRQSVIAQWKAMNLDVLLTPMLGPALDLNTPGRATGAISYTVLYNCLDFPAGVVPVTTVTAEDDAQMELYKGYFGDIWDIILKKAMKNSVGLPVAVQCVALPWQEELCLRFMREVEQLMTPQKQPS

Consider `O=S(=O)(F)CCCc1ccccc1` [Compound 4.1, 3-Phenyl-propanesulfonyl fluoride, reference compound], for which the inhibition at 100 µM (one-point assay) worked out at 19%.
Regarding `O=S(=O)(F)CCCCCCCc1ccccc1` [Compound 4.2, 7-Phenyl-heptanesulfonyl fluoride, reference compound], the inhibition at 100 µM (one-point assay) was 31%.
Take `O=S(=O)(F)CCCCCCCCc1ccccc1` [Compound 4.3, 8-Phenyl-octanesulfonyl fluoride, reference compound]: the “% Inhibition (Concentration)” value (one-point assay, concentration not given) is recorded as 24%.
Turning to `O=S(=O)(Cl)CCCCCCCc1cccc(OCc2ccccc2)c1` [Compound 12.2, 7-(3-Benzyloxy-phenyl)-heptanesulfonyl chloride], under setting [1], the IC50 was determined as 12000 nM. For the same compound, the Ki under setting [2] was 2900 nM. The inhibition at 100 µM (one-point assay) is 97%.
The matching figures for `O=S(=O)(Cl)CCCCCCCc1ccccc1OCc1ccccc1` [Compound 12.3, 7-(2-Benzyloxy-phenyl)-heptanesulfonyl chloride]: 1750 nM, 410 nM and 97%.
As for `O=S(=O)(Cl)CCCCCc1ccc(OCc2ccccc2)cc1` [Compound 12.4, 5-(4-Benzyloxy-phenyl)-pentanesulfonyl chloride], the inhibition at 100 µM (one-point assay) stood at 95%.
Turning to `O=S(=O)(F)CCCCCCCc1cccc(OCc2ccccc2)c1` [Compound 13.2, 7-(3-Benzyloxy-phenyl)-heptanesulfonyl fluoride], the inhibition at 100 µM (one-point assay) was determined as 97%.
Take `O=S(=O)(F)CCCCCCCc1ccccc1OCc1ccccc1` [Compound 13.3, 7-(2-Benzyloxy-phenyl)-heptanesulfonyl fluoride]: it took 193 nM to reach half-maximal inhibition (IC50) and the Ki was 46 nM. In addition, for the setting “one-point assay”, the inhibition at 100 µM turned out to be 100%.
As for `O=S(=O)(F)CCCCCCCc1cccc(O)c1` [Compound 14.2, 7-(3-Hydroxy-phenyl)-heptanesulfonyl fluoride], the IC50 under setting [1] amounted to 113 nM. The Ki under setting [2] is 26 nM. The inhibition at 100 µM (one-point assay) was 99%.
With `O=S(=O)(F)CCCCCCCc1ccccc1O` [Compound 14.3, 7-(2-Hydroxy-phenyl)-heptanesulfonyl fluoride], the 50% inhibitory concentration (IC50) under setting [1] worked out at 54 nM. In addition, under setting [2], the Ki is 13 nM. The inhibition at 100 µM (one-point assay) turned out to be 100%.
The like results for `O=C(CCCOc1cccc(OCc2ccccc2)c1)C(F)(F)F` [Compound 23.5, 1,1,1-Trifluoro-5-[3-(Benzyloxy)phenoxy]-2-pentanone] were, in that order, 6900 nM, 770 nM and 93%.
`O=C(CCCCOc1cccc(OCc2ccccc2)c1)C(F)(F)F` [Compound 23.6, 1,1,1-Trifluoro-6-[3-(Benzyloxy)phenoxy]-2-hexanone]: the IC50 under setting [1] stood at 6600 nM. Further, the Ki under setting [2] was 470 nM. Besides, the inhibition at 100 µM (one-point assay) was 97%.
The like results for `O=C(CCCCCOc1cccc(OCc2ccccc2)c1)C(F)(F)F` [Compound 23.7, 1,1,1-Trifluoro-7-[3-(Benzyloxy)phenoxy]-2-heptanone] were, in that order, 470 nM, 52 nM and 96%.
For `O=C(CCCCOc1ccccc1OCc1ccccc1)C(F)(F)F` [Compound 23.9, 1,1,1-Trifluoro-6-[2-(Benzyloxy)phenoxy]-2-hexanone], the IC50 under setting [1] was 660 nM. For the same compound, the Ki under setting [2] was 46 nM. In addition, the inhibition at 100 µM (one-point assay) was determined as 97%.
The matching figures for `O=C(CCCOc1ccccc1)C(F)(F)F` [Compound 23.11, 1,1,1-Trifluoro-5-phenoxy-2-pentanone]: 11200 nM, 1200 nM and 79%.
Regarding `O=C(CCCOc1ccc(O)cc1)C(F)(F)F` [Compound 24.1, 1,1,1-Trifluoro-5-[4-(hydroxy)phenoxy]-2-pentanone], the IC50 under setting [1] amounted to 14900 nM. Further, the Ki under setting [2] was 1700 nM. The inhibition at 100 µM (one-point assay) came to 68%.
The matching figures for `O=C(CCCCCOc1ccc(O)cc1)C(F)(F)F` [Compound 24.3, 1,1,1-Trifluoro-7-[4-(hydroxy)phenoxy]-2-heptanone]: 11400 nM, 800 nM and 86%.
`Oc1cccc(OCCCC(O)(O)C(F)(F)F)c1` [Compound 24.5, 1,1,1-Trifluoro-2,2-dihydroxy-5-[3-(hydroxy)phenoxy]pentane]: the IC50 under setting [1] was 22800 nM. For the same compound, the Ki under setting [2] is 2500 nM. In addition, the inhibition at 100 µM (one-point assay) is 79%.
For `O=C(CCCCOc1cccc(O)c1)C(F)(F)F` [Compound 24.6, 1,1,1-Trifluoro-6-[3-(hydroxy)phenoxy]-2-hexanone], under setting [1], the IC50 was 29400 nM. Besides, the Ki under setting [2] is 2070 nM. For the setting “one-point assay”, the inhibition at 100 µM came out at 85%.
Take `O=C(CCCCCOc1cccc(O)c1)C(F)(F)F` [Compound 24.7, 1,1,1-Trifluoro-7-[3-(hydroxy)phenoxy]-2-heptanone]: the IC50 under setting [1] is 5020 nM. Further, the Ki under setting [2] was 440 nM.
`O=C(CCCOc1ccccc1O)C(F)(F)F` [Compound 24.8, 1,1,1-Trifluoro-5-[2-(hydroxy)phenoxy]-2-pentanone]: the IC50 under setting [1] is 138000 nM. Further, the Ki under setting [2] is 15300 nM. Moreover, the inhibition at 100 µM (one-point assay) was 43%.
The matching figures for `O=C(CCCCCOc1ccccc1O)C(F)(F)F` [Compound 24.10, 1,1,1-Trifluoro-7-[2-(hydroxy)phenoxy]-2-heptanone]: 26200 nM, 1800 nM and 82%.
As for `O=C(CCCc1ccccc1)C(F)(F)F` [Compound 27.1, 1,1,1-Trifluoro-5-phenyl-2-pentanone], the IC50 under setting [1] worked out at 69400 nM. Further, the Ki under setting [2] was 4600 nM. For the same compound, the inhibition at 100 µM (one-point assay) turned out to be 46%.
The like results for `O=C(CCCCc1ccccc1)C(F)(F)F` [Compound 27.2, 1,1,1-Trifluoro-6-phenyl-2-hexanone] were, in that order, 18800 nM, 2100 nM and 53%.
The matching figures for `O=C(CCCCCc1ccccc1)C(F)(F)F` [Compound 27.3, 1,1,1-Trifluoro-7-phenyl-2-heptanone, reference compound]: 11100 nM, 1230 nM and 83%.
Consider `COc1ccc(CCCCC(=O)C(F)(F)F)cc1` [Compound 27.4, 1,1,1-Trifluoro-6-(4-methoxy-phenyl)-2-hexanone], for which the IC50 under setting [1] is 6900 nM. Under setting [2], the Ki is 600 nM. The inhibition at 100 µM (one-point assay) was found to be 82%.
As to `O=C(c1cccc(-c2cccc(OCc3ccccc3)c2)c1)C(F)(F)F` [Compound 30], the inhibition at 100 µM (one-point assay) turned out to be 33%.
Same read-out and setting: then `O=C(Cc1cccc(-c2cccc(OCc3ccccc3)c2)c1)C(F)(F)F` [Compound 35, 1,1,1-Trifluoro-3-(3-benzyloxy-biphenyl-3-yl)-2-propanone], with 54%; and `CCCCCc1cc(OC)c(-c2ccc(C(=O)C(F)(F)F)cc2)c(OC)c1` [Compound 39.2, 1-(2′,6′-Dimethoxy-4′-pentylbiphenyl-4-yl)-2,2,2-trifluoroethanone], with 57%.
On the same count and under the same terms, then `CCCCCCC(C)(C)c1cc(O)c(-c2ccc(C(=O)C(F)(F)F)cc2)c(O)c1` [Compound 40.1, 1-(2′,6′-dihydroxy-4′-(2-methyloctan-2-yl)biphenyl-4-yl)-2,2,2-trifluoroethanone], with 36%; and `CCCCCCc1ccc(O)c(-c2ccc(C(=O)C(F)(F)F)cc2)c1OC` [Compound 40.3, 2,2,2-Trifluoro-1-(3′-hexyl-6′-hydroxy-2′-methoxybiphenyl-4-yl)ethanone], with 81%.
As to `O=C(Nc1ccc(Br)cc1)OC1CCCCC1` [Compound 48.1, (4-Bromophenyl)carbamic acid cyclohexyl ester], the inhibition at 100 µM (one-point assay) was found to be 25%.
For the compound `CCOC(=O)Nc1ccc(Br)cc1` [Compound 48.2], the IC50 under setting [1] was 4000 nM. The Ki under setting [2] was 1200 nM. Also, the inhibition at 100 µM (one-point assay) turned out to be 84%.
As for `O=C(Nc1ccc(Br)cc1)OCc1ccccc1` [Compound 48.3, (4-Bromophenyl)carbamic acid benzyl ester], the inhibition at 100 µM (one-point assay) amounted to 36%.
For `O=C(Nc1ccc(Br)cc1)OC12CC3CC(CC(C3)C1)C2` [Compound 48.4], the inhibition at 100 µM (one-point assay) amounted to 56%.
In the case of `O=C(Nc1ccc(I)cc1)Oc1ccccc1` [Compound 48.6, (4-Iodophenyl)carbamic acid phenyl ester], for the setting “one-point assay”, the inhibition at 100 µM stood at 84%.
`CCCCCCC(C)(C)c1cc(OCOC)c(-c2ccc(NC(=O)OCC)cc2)c(OCOC)c1` [Compound 52.2, 2′,6′-Bis(methoxymethoxy)-4′-(1,1-dimethylheptyl)[1,1′-biphenyl]-4-yl carbamic acid ethyl ester]: the inhibition at 100 µM (one-point assay) came out at 64%.
On the same count and under the same terms, as for `CCCCCCC(C)(C)c1cc(OCOCC)c(-c2ccc(NC(=O)OCc3ccccc3)cc2)c(OCOCC)c1` [Compound 52.3, 2′,6′-Bis(ethoxymethoxy)-4′-(1,1-dimethylheptyl)[1,1′-biphenyl]-4-yl carbamic acid benzyl ester], the figure is 41%.
Still for that read-out and setting: as for `CCCCCCC(C)(C)c1cc(O)c(-c2ccc(NC(=O)OC3CCCCC3)cc2)c(O)c1` [Compound 53.1, 2′,6′-Dihydroxy-4′-(2-methyloctan-2-yl)biphenyl-4-yl carbamic acid cyclohexyl ester], the figure is 23%; as for `CCCCCCC(C)(C)c1cc(O)c(-c2ccc(NC(=O)OCC)cc2)c(O)c1` [Compound 53.2, 2′,6′-Dihydroxy-4′-(1,1-dimethylheptyl)[1,1′-biphenyl]-4-yl carbamic acid ethyl ester], 15%; as for `CCCCCCC(C)(C)c1cc(O)c(-c2ccc(NC(=O)OCc3ccccc3)cc2)c(O)c1` [Compound 53.3, 2′,6′-Dihydroxy-4′-(2-methyloctane-2-yl)biphenyl-4-yl carbamic acid benzyl ester], 89%.
On to `O=C(NCc1ccc(Br)cc1)OCc1ccccc1` [Compound 57.2, (4-Bromobenzyl)carbamic acid benzyl ester], for which the inhibition at 100 µM (one-point assay) was 89%.
